22 compounds from patent US4755509A, “Heterocyclic aldose reductase inhibitors and methods of using them” (Carbipem, priority 1984, dated 1988) can be followed below.

Structures can show the parent of a compound that is named as a salt.

The experiment concerns the target T1, aldose reductase (Rattus norvegicus, UniProt P07943).
T1 construct: rat lens homogenate used as a source of enzyme; from tissue; host or cells: rat lens homogenate
Briefly: in vitro inhibition of aldose reductase from rat lens homogenate (DL-glyceraldehyde substrate, NADPH, spectrophotometry at 340 nm). The format is biochemical. Particulars: for inhibition at 100 µM: concentration 10^-4 mol/liter; for inhibition at 10 µM: concentration 10^-5 mol/liter; for inhibition at 0.1 µM: concentration 10^-7 mol/liter; for inhibition at 0.01 µM: concentration 10^-8 mol/liter; for IC50: n = average of 3 determinations (Example 132: average of 2 determinations); for inhibition at 1 µM: concentration 10^-6 mol/liter. Here is the method: The inhibitory activity on aldose reductase is evaluated in vitro starting from a rat lens homogenate used as a source of enzyme. The substrate used is DL-glyceraldehyde, which is converted by aldose reductase to glycerol in the presence of NADPH (*). This reaction is followed by spectrophotometry at 340 nm in the absence and in the presence of the inhibitors to be tested, the variation in optical density being proportional to the oxidation of the reduced coenzyme.
The results are shown in Table I below and represent, for different examples, the percentage inhibition of the enzymatic activity, relative to the control activity, as a function of the different concentrations (mol.l^-1) used.

[1] abbreviates: read-out: Inhibition relative to the control activity, %.

For the compound `O=C(O)CN1C(=S)CSc2ccc(F)cc21` [Example 119, 6-Fluoro-2H-1,4-benzothiazine-3-thione-4-acetic acid], inhibition was half-maximal at 46 ± 2 nM (IC50). Besides, under setting [1], the inhibition at 100 µM stood at 100%, the inhibition at 10 µM is 98%, the inhibition at 0.1 µM was found to be 67% and the inhibition at 0.01 µM is 22%.

`O=C(O)CN1C(=S)CSc2cc(Cl)ccc21` [Example 127, 7-Chloro-2H-1,4-benzothiazine-3-thione-4-acetic acid]: under setting [1], the inhibition at 10 µM is 98%, the inhibition at 0.1 µM turned out to be 93% and the inhibition at 0.01 µM amounted to 28%.

With `O=C(O)CN1C(=S)CSc2cc(F)ccc21` [Example 117, 7-Fluoro-2H-1,4-benzothiazine-3-thione-4-acetic acid], inhibition was half-maximal at 82 ± 1 nM (IC50). Under setting [1], the inhibition at 100 µM is 100%, the inhibition at 10 µM was determined as 100%, the inhibition at 0.1 µM stood at 65% and the inhibition at 0.01 µM came to 5%.

Consider `O=C(O)CN1C(=S)C(c2ccccc2)Sc2ccccc21` (stereo not shown) [Example 130, 2-Phenyl-2H-1,4-benzothiazine-3-thione-4-acetic acid], for which, under setting [1], the inhibition at 10 µM was 99%, the inhibition at 0.1 µM was 95% and the inhibition at 0.01 µM stood at 17%.

Take `O=C(O)CN1C(=O)CSc2cc(F)ccc21` [Example 116, 7-Fluoro-2H-1,4-benzothiazin-3-one-4-acetic acid]: under setting [1], the inhibition at 100 µM turned out to be 100%, the inhibition at 10 µM is 95% and the inhibition at 1 µM worked out at 25%.

Regarding `O=C(O)CN1C(=O)CSc2ccc(F)cc21` [Example 118, 6-Fluoro-2H-1,4-benzothiazin-3-one-4-acetic acid], under setting [1], the inhibition at 100 µM was determined as 98%, the inhibition at 10 µM was 91% and the inhibition at 1 µM turned out to be 10%.

As to `O=C(O)CN1C(=O)CSc2cc(Cl)c(C(F)(F)F)cc21` [Example 123, 6-Trifluoromethyl-7-chloro-2H-1,4-benzothiazin-3-one-4-acetic acid], under setting [1], the inhibition at 100 µM is 97%, the inhibition at 10 µM was 81% and the inhibition at 0.1 µM worked out at 0%.

Turning to `O=C(O)CN1C(=O)CSc2ccccc21` [Example 124, 2H-1,4-Benzothiazin-3-one-4-acetic acid], under setting [1], the inhibition at 100 µM was determined as 97%, the inhibition at 10 µM came out at 86% and the inhibition at 0.1 µM was 10%.

As for `O=C(O)CN1C(=S)COc2ccc(F)cc21` [Example 152, 6-Fluoro-2H-1,4-benzoxazine-3-thione-4-acetic acid], the IC50 was found to be 86 ± 4 nM. Besides, under setting [1], the inhibition at 100 µM was determined as 100%, the inhibition at 10 µM was found to be 99% and the inhibition at 0.1 µM was found to be 54%.

As for `CC1Sc2ccc(F)cc2N(CC(=O)O)C1=O` (stereo not shown) [Example 136, 6-Fluoro-2-methyl-2H-1,4-benzothiazin-3-one-4-acetic acid], under setting [1], the inhibition at 10 µM was found to be 95%, the inhibition at 0.1 µM worked out at 30% and the inhibition at 0.01 µM was 11%.

Turning to `CC1(c2ccccn2)Sc2ccccc2N(CC(=O)O)C1=O` (stereo not shown) [Example 151, 2-Methyl-2-(pyridin-2'-yl)-2H-1,4-benzothiazin-3-one-4-acetic acid], under setting [1], the inhibition at 100 µM came to 96%, the inhibition at 10 µM came to 73% and the inhibition at 0.1 µM was found to be 16%.

The compound `O=C(O)CN1C(=S)CSc2ccccc21` [Example 133, 2H-1,4-Benzothiazine-3-thione-4-acetic acid] had an IC50 of 54 ± 5 nM. Moreover, under setting [1], the inhibition at 10 µM worked out at 98%, the inhibition at 0.1 µM came out at 69% and the inhibition at 0.01 µM stood at 18%.

With `CC1Sc2ccccc2N(CC(=O)O)C1=O` (stereo not shown) [Example 125, 2-Methyl-2H-1,4-benzothiazin-3-one-4-acetic acid], under setting [1], the inhibition at 100 µM is 99%, the inhibition at 10 µM was found to be 91% and the inhibition at 0.1 µM amounted to 12%.

Take `CC1Sc2ccccc2N(CC(=O)O)C1=S` (stereo not shown) [Example 132, 2-Methyl-2H-1,4-benzothiazine-3-thione-4-acetic acid]: the IC50 amounted to 42 ± 13 nM. Besides, under setting [1], the inhibition at 10 µM is 95%, the inhibition at 0.1 µM stood at 92% and the inhibition at 0.01 µM was 16%.

For `O=C(O)CN1C(=O)CSc2ncccc21` [Example 110, Pyrido[2,3-b]thiazin-2(3H)-one-1-acetic acid], under setting [1], the inhibition at 100 µM came out at 95%, the inhibition at 10 µM was found to be 82%, the inhibition at 1 µM came out at 37% and the inhibition at 0.1 µM stood at 11%. Besides, under setting [1], the inhibition at 0.01 µM turned out to be 4%. Besides, for the setting “concentration 10^-9 mol/liter, read-out: Inhibition relative to the control activity, %”, the inhibition at 0.001 µM came out at 9%.

`O=C(O)CN1C(=S)CCc2cc(Cl)ccc21` [Example 154, 6-Chloro-3,4-dihydroquinoline-2-thione-1-acetic acid] came in with a concentration for half-maximal inhibition (IC50) of 91 ± 15 nM. Further, under setting [1], the inhibition at 10 µM amounted to 94%, the inhibition at 0.1 µM came out at 56% and the inhibition at 0.01 µM came out at 29%.

As for `O=C(O)CN1C(=O)CSc2cc(Cl)ccc21` [Example 121, 7-Chloro-2H-1,4-benzothiazin-3-one-4-acetic acid], under setting [1], the inhibition at 100 µM is 97%, the inhibition at 10 µM worked out at 92% and the inhibition at 0.1 µM was determined as 16%.

With `O=C(O)CN1C(=O)CNc2ncccc21` [Example 114, Pyrido[2,3-b][1,4]pyrazin-2(3H)-one-1-acetic acid hydrochloride], under setting [1], the inhibition at 100 µM came out at 95%, the inhibition at 10 µM came to 86% and the inhibition at 1 µM was determined as 6%.

As for `O=C(O)CN1C(=S)CSc2cc(Cl)c(C(F)(F)F)cc21` [Example 129, 6-Trifluoromethyl-7-chloro-2H-1,4-benzothiazine-3-thione-4-acetic acid], under setting [1], the inhibition at 10 µM is 74% and the inhibition at 0.01 µM came out at 5%.

Take `O=C(O)CN1C(=O)CSc2ccc(C(F)(F)F)cc21` [Example 115, 6-Trifluoromethyl-2H-1,4-benzothiazin-3-one-4-acetic acid]: under setting [1], the inhibition at 100 µM amounted to 90%, the inhibition at 10 µM worked out at 57% and the inhibition at 0.1 µM amounted to 3%.

As for `O=C(O)CN1C(=O)CSc2nc(Cl)ccc21` [Example 111, 6-Chloropyrido[2,3-b]thiazin-2(3H)-one-1-acetic acid], under setting [1], the inhibition at 100 µM was found to be 96%, the inhibition at 10 µM was determined as 80% and the inhibition at 0.1 µM came to 5%.

In the case of `CC1Sc2ccc(F)cc2N(CC(=O)O)C1=S` (stereo not shown) [Example 137, 6-Fluoro-2-methyl-2H-1,4-benzothiazine-3-thione-4-acetic acid], under setting [1], the inhibition at 10 µM was 94%, the inhibition at 0.1 µM is 80% and the inhibition at 0.01 µM was 13%.

As a reminder, the inhibition is the percentage by which the read-out fell short of the control. In general, IC50 refers to the concentration that gives 50% inhibition. Lower therefore signals higher potency.
